Laboratory results published in paper PMC9599246 (2022).

Tested on: fl-2CS1 (DNA, aptamer) GAGAGGTCAGATGATGCACTAGGGTTACGAGACCACGCGGTACCCTATGCGTGCTAC
Assay: ITC
Conditions: none added; 0.1 M Tris-HCl pH 7.4, 1% DMSO, 25 °C; 125 μM toxin in syringe, 5 μM aptamer in cell

## C[C@@H]1Cc2c(Cl)cc(C(=O)N[C@@H](Cc3ccccc3)C(=O)O)c(O)c2C(=O)O1
  binding: no

## CCCC[C@@H](C)[C@@H](OC(=O)C[C@@H](CC(=O)O)C(=O)O)[C@H](C[C@@H](C)C[C@H](O)CCCC[C@@H](O)C[C@H](O)[C@H](C)N)OC(=O)C[C@@H](CC(=O)O)C(=O)O
  binding: no
